Among the data in PubChem BioAssay AID651961 (The Scripps Research Institute Molecular Screening Center, 2012) are IC50 values, retold here.

Calls of active or inactive are those of the source. How the calls were made is not given here.

For the experiment, the system named is BLA reporter cell line, FRET fluorescence counterscreen. As to the kind of experiment: beta-lactamase reporter inhibition, nonselective hits, late-stage follow-up, counter-screen for NOD2-RIPK2 interaction inhibitor project, cell-based, FRET fluorescence, dose response (AID 651961).
Take `O=[N+]([O-])c1cccc(S(=O)(=O)N2CCCCCC2)c1`: the IC50 was > 49.8 µM (inactive).
For `O=[N+]([O-])c1cc(S(=O)(=O)N2CCCCCC2)ccc1F` the value was > 49.8 µM (inactive); for `Cc1ncc([N+](=O)[O-])n1Cc1ccc(Cl)c(Cl)c1`, > 49.8 µM (inactive).
To `Cc1ccc(C(C[N+](=O)[O-])n2nc(C)cc2C)cc1` (stereo unspecified) belongs > 49.8 µM (inactive); to `Cc1nc([N+](=O)[O-])c(Br)n1Cc1ccc(Cl)c(Cl)c1`, > 49.8 µM (inactive); to `Cc1ccc(S(=O)(=O)N2CCCCCC2)cc1[N+](=O)[O-]`, > 49.8 µM (inactive).
To `O=S(=O)(c1ccc(F)cc1)N1CCCCCC1` belongs > 49.8 µM (inactive).
Turning to `O=S(=O)(c1ccccc1)N1CCCCCC1`, the IC50 was > 49.8 µM (inactive).
For `Cc1nc([N+](=O)[O-])c(Br)n1Cc1ccccc1` the value was > 49.8 µM (inactive); for `Cc1cc(S(=O)(=O)N2CCCCCC2)ccc1F`, > 49.8 µM (inactive).
For `COc1ccc(C(C[N+](=O)[O-])n2nc(C)cc2C)cc1` (stereo unspecified) the value was > 49.8 µM (inactive).
